Assay results: PubChem BioAssay (NCI)
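Cultured in 96-well plates, cells were exposed to test compound for 48 hours across five concentrations. GI50: concentration for 50% inhibition of growth. TGI is the concentration that stops growth completely.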

What was measured:
Experiment in all cases: DTP human tumour cell line panel, 48 h
A498 renal = test system: A498 renal
OVCAR-3 ovarian = test system: OVCAR-3 ovarian
CAKI-1 renal = test system: CAKI-1 renal
KM20L2 colon = test system: KM20L2 colon
M19-MEL melanoma = test system: M19-MEL melanoma
OVCAR-5 ovarian = test system: OVCAR-5 ovarian
SNB-78 CNS = test system: SNB-78 CNS
UACC-257 melanoma = test system: UACC-257 melanoma
LOX IMVI melanoma = test system: LOX IMVI melanoma
SK-MEL-28 melanoma = test system: SK-MEL-28 melanoma
U251 CNS = test system: U251 CNS
NCI-H460 lung = test system: NCI-H460 lung
SF-295 CNS = test system: SF-295 CNS
NCI-H522 lung = test system: NCI-H522 lung
HOP-92 NSCLC = test system: HOP-92 NSCLC
ACHN renal = test system: ACHN renal
SNB-75 CNS = test system: SNB-75 CNS
M14 melanoma = test system: M14 melanoma
786-0 renal = test system: 786-0 renal
HOP-18 NSCLC = test system: HOP-18 NSCLC
HCT-116 colon = test system: HCT-116 colon
SK-MEL-5 melanoma = test system: SK-MEL-5 melanoma
UACC-62 melanoma = test system: UACC-62 melanoma
DLD-1 colon = test system: DLD-1 colon
OVCAR-4 ovarian = test system: OVCAR-4 ovarian
RPMI-8226 leukemia = test system: RPMI-8226 leukemia
TK-10 renal = test system: TK-10 renal
RXF 393 renal = test system: RXF 393 renal
DMS 273 small cell lung = test system: DMS 273 small cell lung
SF-268 CNS = test system: SF-268 CNS
SN12C renal = test system: SN12C renal
SK-OV-3 ovarian = test system: SK-OV-3 ovarian
LXFL 529 NSCLC = test system: LXFL 529 NSCLC
OVCAR-8 ovarian = test system: OVCAR-8 ovarian
KM12 colon = test system: KM12 colon
HOP-62 NSCLC = test system: HOP-62 NSCLC
SF-539 CNS = test system: SF-539 CNS
A549 NSCLC = test system: A549 NSCLC
NCI-H23 lung = test system: NCI-H23 lung
COLO 205 colon = test system: COLO 205 colon
SNB-19 CNS = test system: SNB-19 CNS
IGROV1 ovarian = test system: IGROV1 ovarian
MALME-3M melanoma = test system: MALME-3M melanoma
HCC-2998 colon = test system: HCC-2998 colon
HCT-15 colon = test system: HCT-15 colon
XF 498 CNS = test system: XF 498 CNS
SK-MEL-2 melanoma = test system: SK-MEL-2 melanoma
UO-31 renal = test system: UO-31 renal
SW-620 colon = test system: SW-620 colon
DMS 114 small cell lung = test system: DMS 114 small cell lung
HT29 colon = test system: HT29 colon
MOLT-4 leukemia = test system: MOLT-4 leukemia
K-562 leukemia = test system: K-562 leukemia
EKVX NSCLC = test system: EKVX NSCLC
PC-3 prostate = test system: PC-3 prostate
MCF7 breast = test system: MCF7 breast
MDA-MB-231 breast = test system: MDA-MB-231 breast
T-47D breast = test system: T-47D breast
HL-60(TB) leukemia = test system: HL-60(TB) leukemia
NCI/ADR-RES ovarian = test system: NCI/ADR-RES ovarian
HS 578T breast = test system: HS 578T breast
CCRF-CEM leukemia = test system: CCRF-CEM leukemia
DU-145 prostate = test system: DU-145 prostate
NCI-H226 lung = test system: NCI-H226 lung
BT-549 breast = test system: BT-549 breast
MDA-N = test system: MDA-N
SR leukemia = test system: SR leukemia
MDA-MB-435 = test system: MDA-MB-435

## CCC[CH2][Sn]1([CH2]CCC)[O]C(=O)CN=C(C)c2ccccc2[O]1
A498 renal
  GI50: 2720 nM
  TGI: 11400 nM
OVCAR-3 ovarian
  GI50: 1400 nM
  TGI: 2730 nM
CAKI-1 renal
  GI50: 534 nM
  TGI: 2100 nM
KM20L2 colon
  GI50: 1550 nM
  TGI: 2970 nM
M19-MEL melanoma
  GI50: 528 nM
  TGI: 1800 nM
OVCAR-5 ovarian
  GI50: 1810 nM
  TGI: 3240 nM
SNB-78 CNS
  GI50: 312 nM
  TGI: 1700 nM
UACC-257 melanoma
  GI50: 955 nM
  TGI: 2200 nM
LOX IMVI melanoma
  GI50: 533 nM
  TGI: 1840 nM
SK-MEL-28 melanoma
  GI50: 868 nM
  TGI: 2110 nM
U251 CNS
  GI50: 1100 nM
  TGI: 2300 nM
NCI-H460 lung
  GI50: 1790 nM
  TGI: 3550 nM
SF-295 CNS
  GI50: 1480 nM
  TGI: 2860 nM
NCI-H522 lung
  GI50: 179 nM
  TGI: 369 nM
HOP-92 NSCLC
  GI50: 978 nM
  TGI: 2180 nM
ACHN renal
  GI50: 881 nM
  TGI: 2130 nM
SNB-75 CNS
  GI50: 735 nM
  TGI: 2340 nM
M14 melanoma
  GI50: 1370 nM
  TGI: 2670 nM
786-0 renal
  GI50: 1290 nM
  TGI: 2580 nM
HOP-18 NSCLC
  GI50: 1500 nM
  TGI: 2850 nM
HCT-116 colon
  GI50: 1550 nM
  TGI: 2920 nM
SK-MEL-5 melanoma
  GI50: 2550 nM
  TGI: > 100000 nM
UACC-62 melanoma
  GI50: 922 nM
  TGI: 2210 nM
DLD-1 colon
  GI50: 1940 nM
  TGI: > 100000 nM
OVCAR-4 ovarian
  GI50: 1730 nM
  TGI: 3620 nM
RPMI-8226 leukemia
  GI50: 468 nM
  TGI: 2800 nM
TK-10 renal
  GI50: 586 nM
  TGI: 1780 nM
RXF 393 renal
  GI50: 222 nM
  TGI: 786 nM
DMS 273 small cell lung
  GI50: 1390 nM
  TGI: 2740 nM
SF-268 CNS
  GI50: 306 nM
  TGI: 1650 nM
SN12C renal
  GI50: 1130 nM
  TGI: 2340 nM
SK-OV-3 ovarian
  GI50: 2370 nM
  TGI: 4140 nM
LXFL 529 NSCLC
  GI50: 254 nM
  TGI: 1280 nM
OVCAR-8 ovarian
  GI50: 1390 nM
  TGI: 2830 nM
KM12 colon
  GI50: 1270 nM
  TGI: 2580 nM
HOP-62 NSCLC
  GI50: 5210 nM
  TGI: > 100000 nM
SF-539 CNS
  GI50: 2780 nM
  TGI: > 100000 nM
A549 NSCLC
  GI50: 3000 nM
  TGI: 9620 nM
NCI-H23 lung
  GI50: 429 nM
  TGI: 1780 nM
COLO 205 colon
  GI50: 569 nM
  TGI: 1900 nM
SNB-19 CNS
  GI50: 1090 nM
  TGI: 2290 nM
IGROV1 ovarian
  GI50: 2830 nM
  TGI: > 100000 nM
MALME-3M melanoma
  GI50: 1040 nM
  TGI: 2300 nM
HCC-2998 colon
  GI50: 1530 nM
  TGI: 2920 nM
HCT-15 colon
  GI50: 1150 nM
  TGI: 2460 nM
XF 498 CNS
  GI50: 1740 nM
  TGI: 3190 nM
SK-MEL-2 melanoma
  GI50: 500 nM
  TGI: 1550 nM
UO-31 renal
  GI50: 1320 nM
  TGI: 2630 nM
SW-620 colon
  GI50: 413 nM
  TGI: 1590 nM
DMS 114 small cell lung
  GI50: 227 nM
  TGI: 655 nM
HT29 colon
  GI50: 1660 nM
  TGI: 3100 nM
MOLT-4 leukemia
  GI50: 740 nM
  TGI: 5040 nM
K-562 leukemia
  GI50: 289 nM
  TGI: 4740 nM
EKVX NSCLC
  GI50: 1480 nM
  TGI: 2990 nM

## O=C(NNC(=S)Nc1ccc(Cl)cc1)C12CC3CC(CC(C3)C1)C2
A498 renal
  TGI: 22900 nM
OVCAR-3 ovarian
  TGI: 10600 nM
PC-3 prostate
  TGI: 19200 nM
MCF7 breast
  TGI: > 56500 nM
CAKI-1 renal
  TGI: 49500 nM
MDA-MB-231 breast
  TGI: 19600 nM
T-47D breast
  TGI: 41400 nM
OVCAR-5 ovarian
  TGI: 81100 nM
HL-60(TB) leukemia
  TGI: 5480 nM
UACC-257 melanoma
  TGI: > 57300 nM
LOX IMVI melanoma
  TGI: 19000 nM
NCI/ADR-RES ovarian
  TGI: 14800 nM
SK-MEL-28 melanoma
  TGI: 60800 nM
U251 CNS
  TGI: 24800 nM
NCI-H460 lung
  TGI: 24500 nM
SF-295 CNS
  TGI: 26600 nM
NCI-H522 lung
  TGI: 20200 nM
HOP-92 NSCLC
  TGI: 56700 nM
HS 578T breast
  TGI: 83000 nM
ACHN renal
  TGI: 29000 nM
CCRF-CEM leukemia
  TGI: 11600 nM
SNB-75 CNS
  TGI: 51100 nM
M14 melanoma
  TGI: 26600 nM
786-0 renal
  TGI: > 58000 nM
HCT-116 colon
  TGI: 9260 nM
SK-MEL-5 melanoma
  TGI: 15500 nM
DU-145 prostate
  TGI: 43600 nM
UACC-62 melanoma
  TGI: 21800 nM
OVCAR-4 ovarian
  TGI: 54500 nM
RPMI-8226 leukemia
  TGI: 2280 nM
TK-10 renal
  TGI: 70800 nM
RXF 393 renal
  TGI: 48600 nM
SF-268 CNS
  TGI: 32000 nM
SN12C renal
  TGI: 28700 nM
SK-OV-3 ovarian
  TGI: 64700 nM
OVCAR-8 ovarian
  TGI: > 44600 nM
KM12 colon
  TGI: > 51600 nM
HOP-62 NSCLC
  TGI: 29700 nM
SF-539 CNS
  TGI: 14300 nM
NCI-H226 lung
  TGI: 31600 nM
BT-549 breast
  TGI: 39400 nM
A549 NSCLC
  TGI: 24900 nM
NCI-H23 lung
  TGI: 54700 nM
COLO 205 colon
  TGI: 18300 nM
SNB-19 CNS
  TGI: > 79200 nM
IGROV1 ovarian
  TGI: 33100 nM
MALME-3M melanoma
  TGI: 47400 nM
HCC-2998 colon
  TGI: 27000 nM
MDA-N
  TGI: 43600 nM
HCT-15 colon
  TGI: 42500 nM
SK-MEL-2 melanoma
  TGI: 38200 nM
UO-31 renal
  TGI: 19000 nM
SR leukemia
  TGI: 4830 nM
SW-620 colon
  TGI: 35600 nM
HT29 colon
  TGI: 21400 nM
MOLT-4 leukemia
  TGI: 10700 nM
K-562 leukemia
  TGI: > 37900 nM
EKVX NSCLC
  TGI: 55000 nM
MDA-MB-435
  TGI: 37800 nM
